Like-named read-outs stand apart in the source and are kept apart here.
Key:
human LPA2 = target: T1, human LPA2 (Homo sapiens, UniProt Q9HBW0); assay: Ca2+ mobilization assay, LPA2; assay type: cell-based; conditions: for EC50: RH7777 cells stably expressing LPA2, agonist mode; for LPA2 (Emax): Emax = (maximal efficacy of compound/maximal efficacy of LPA 18:1) × 100; for LPA2 ligand type: agonist/antagonist in words
T1 construct: expressed in transfected cells
Method: (§1) Receptor activation using Ca^2+ mobilization assay for diastereomers of 1 (also represented as 19b). The rat hepatoma (RH7777) cell lines individually expressing either LPA1, LPA2, LPA3 or LPA5 receptors and Chinese hamster ovary (CHO) cell line were analyzed to examine agonism and antagonism. […] CHO cells stably expressing either vector or LPA4 were kindly gifted from Dr. Shimizu (University of Tokyo, Tokyo, Japan).
(§2) Stable transformants of LPA1/2/3 receptors. RH7777 cells stably expressing each receptor were plated onto poly-L-lysine (PLL) (0.1 mg/mL)-coated black-wall clear-bottom 96-well plates (Corning Incorporated Life Sciences, Acton, Mass.) at a density of 5×10^4 cells/well and cultured overnight. The following day, the culture medium was replaced with modified Krebs buffer (120 mM NaCl, 5 mM KCl, 0.62 mM MgSO4, 1.8 mM CaCl2, 10 mM HEPES, 6 mM glucose, pH 7.4), and the cells were serum starved for 6 h. Subsequently, cells were loaded with Fura-2 AM (Invitrogen, Carlsbad, Calif.) for 35 min in modified Krebs buffer containing 2% (v/v) pluronic acid.
(§3) After incubating the cells with Fura-2 AM, the cells were rinsed with Krebs buffer and changes in the intracellular Ca^2+ concentration were monitored by determining the ratio of emitted light intensities at 520 nm in response to excitation at 340 and 380 nm using FLEXstation II (Molecular Devices, Sunnyvale, Calif.). Each well was monitored for 80-120 sec. For testing agonist activity of the compounds, the test compounds were added automatically after 15 sec of baseline measurement. […] Each test was performed in quadruplicate. EC50, IC50, and Ki values were calculated by fitting a sigmoid function to data points with the nonlinear curve-fitting feature of KaleidaGraph (Synergy Software, Essex Junction, Vt.).
(§4) Receptor activation using Ca^2+ mobilization assay. The assay for mobilization of intracellular Ca^2+ was performed as described. Briefly, rat hepatoma RH7777 cells stably expressing human LPA1, LPA2, or LPA3, and CHO cells stably expressing LPA4, were loaded with Fura-2 AM (Molecular Probes). Using a FLEXStation (Molecular Devices, Sunnyvale, Calif.), changes in intracellular Ca^2+ concentration were monitored. Ligand-induced changes in fluorescence were monitored for 80-120 seconds. Ca^2+ transients were quantified automatically by calculating the difference between maximum and baseline ratio values for each sample. […] Each test was performed in quadruplicate. EC50, IC50, and Ki values were calculated as described. The ligand properties of the compounds were evaluated using Ca^2+ mobilization assay for assessing the activation/inhibition of LPA1, LPA2, and LPA3 expressed in RH7777 cells and LPA4 expressed in CHO cells.

recombinant ATX-HA = target: T2, recombinant ATX-HA (Homo sapiens, UniProt Q13822); assay: Autotaxin assay (FS-3 hydrolysis); assay type: biochemical; conditions: for Inhibition (%) of autotaxin (ATX) phosphodiesterase activity / inhibition at 10 µM: FS-3 substrate
T2 construct: HA
Method: Autotaxin Assay. This assay utilizes FS-3 (Echelon Biosciences, Inc. Salt Lake City, Utah) as substrate and recombinant ATX-HA. For analysis, 50 μl of ATX-HA (0.25 μg) in assay buffer (Tris 50 mM, NaCl 140 mM, KCl 5mM, CaCl2 1 mM, MgCl2 1 mM, pH 8.0) was mixed with 25 μl of FS-3 (1 μM final concentration in assay buffer) and 25 μl of test compound dissolved in assay buffer containing 1:1.5 bovine serum albumin in 96-well plate. FS-3 fluorescence was monitored using FLEXstation fluorescence plate reader at a time zero and after 2 hours of incubation at 37° C. at excitation and emission wavelengths of 485 nm and 538 nm, respectively. Data was normalized to the corresponding vehicle control and the mean±standard deviation of triplicate wells were expressed as percent ATX inhibition. IC50, and Ki values were calculated as described.

human LPA3 = target: T3, human LPA3 (Homo sapiens, UniProt Q9UBY5); assay: Ca2+ mobilization assay, LPA3; assay type: cell-based; conditions: for EC50: RH7777 cells stably expressing LPA3, agonist mode; for LPA3 (Emax): Emax = (maximal efficacy of compound/maximal efficacy of LPA 18:1) × 100; for LPA3 ligand type: agonist/antagonist in words
T3 construct: expressed in transfected cells
T3 sequence (Q9UBY5 1-353): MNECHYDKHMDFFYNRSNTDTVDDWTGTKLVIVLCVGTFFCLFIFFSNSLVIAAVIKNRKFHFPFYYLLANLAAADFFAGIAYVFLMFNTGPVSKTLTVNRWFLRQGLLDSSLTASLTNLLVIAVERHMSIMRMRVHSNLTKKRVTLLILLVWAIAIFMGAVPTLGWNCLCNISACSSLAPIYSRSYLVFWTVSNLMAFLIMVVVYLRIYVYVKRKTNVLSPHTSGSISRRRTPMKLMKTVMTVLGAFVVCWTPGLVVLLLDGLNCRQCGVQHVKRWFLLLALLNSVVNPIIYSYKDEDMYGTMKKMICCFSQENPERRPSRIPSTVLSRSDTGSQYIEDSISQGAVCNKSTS
Method: as §1, §2, §3, §4

human LPA4 = target: T4, human LPA4 (Homo sapiens, UniProt Q99677); assay: Ca2+ mobilization assay, LPA4 in CHO cells; assay type: cell-based; conditions: for EC50: CHO cells stably expressing LPA4, agonist mode; for LPA4 (Emax): Emax = (maximal efficacy of compound/maximal efficacy of LPA 18:1) × 100; for LPA4 ligand type: agonist/antagonist in words; for inhibition at 30 µM: CHO, at 30 μM (400 nM LPA), read-out: LPA4 Inhibition
T4 construct: expressed in transfected cells
T4 sequence (Q99677 whole entry): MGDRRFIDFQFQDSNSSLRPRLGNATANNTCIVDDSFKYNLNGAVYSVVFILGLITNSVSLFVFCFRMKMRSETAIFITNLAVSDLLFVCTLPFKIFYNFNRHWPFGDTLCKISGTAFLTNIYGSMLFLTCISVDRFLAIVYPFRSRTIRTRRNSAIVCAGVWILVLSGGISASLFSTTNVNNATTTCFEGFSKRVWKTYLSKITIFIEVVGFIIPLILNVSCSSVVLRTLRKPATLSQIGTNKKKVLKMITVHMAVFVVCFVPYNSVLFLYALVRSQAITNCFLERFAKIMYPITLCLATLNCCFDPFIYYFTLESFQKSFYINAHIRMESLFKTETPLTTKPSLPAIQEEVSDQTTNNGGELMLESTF
Method: as §1
Stable transformants of LPA4. CHO cells stably expressing either vector or LPA4 were plated on non-coated 96 well plates at a density of 4×10^4 cells/well and cultured overnight. The following day, cells were loaded with Fura-2 AM for 1 h in modified Krebs buffer containing 2% (v/v) pluronic acid and 2.5 mM probenecid.
as §3, §4

[1] = antagonist mode vs 10 nM LPA, PA = partial antagonist, read-out: LPA2 IC50
[2] = antagonist mode vs 10 nM LPA, read-out: LPA2 (Ki)
[3] = 10.0 μM, preliminary single-dose screen
[4] = antagonist mode vs 200 nM LPA, read-out: LPA3 (Ki)
[5] = diastereomer study, RH7777 cells, read-out: LPA2 IC50 (Table 2)
[6] = diastereomer study, RH7777 cells, read-out: LPA2 Ki (Table 2)
[7] = 10 μM, read-out: ATX Inhibition (Table 2)
[8] = diastereomer study, RH7777 cells, read-out: LPA3 IC50 (Table 2)
[9] = diastereomer study, RH7777 cells, read-out: LPA3 Ki (Table 2)

T1 sequence (Q9HBW0 whole entry): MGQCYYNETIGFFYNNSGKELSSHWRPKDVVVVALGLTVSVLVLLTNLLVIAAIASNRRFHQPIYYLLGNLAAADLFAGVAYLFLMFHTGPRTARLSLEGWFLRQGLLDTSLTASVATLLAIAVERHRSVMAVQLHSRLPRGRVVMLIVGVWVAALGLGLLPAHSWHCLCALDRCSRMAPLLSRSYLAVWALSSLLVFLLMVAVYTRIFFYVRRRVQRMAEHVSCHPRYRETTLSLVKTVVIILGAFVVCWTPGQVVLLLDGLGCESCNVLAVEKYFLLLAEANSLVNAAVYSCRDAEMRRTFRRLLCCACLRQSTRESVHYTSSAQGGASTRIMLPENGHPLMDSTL

Row | EC50 (human LPA2) [nM] | Inhibition (%) of autotaxin (ATX) phosphodiesterase activity (recombinant ATX-HA; [3]) [%] | EC50 (human LPA3) [nM] | EC50 (human LPA4) [nM] | LPA4 ligand type (human LPA4) | LPA2 (Emax) (human LPA2) | LPA3 (Emax) (human LPA3) | IC50 (human LPA2; [5]) [nM] | Ki (human LPA2; [6]) [nM] | inhibition at 10 µM (recombinant ATX-HA; [7]) [%] | inhibition at 30 µM (human LPA4) [%] | Compound | LPA4 (Emax) (human LPA4) | other results
1 | > 30000 | – | > 30000 | > 30000 | – | – | – | 468 | 245 | 102 ± 2.7 | 13.9 | CCCCCCCCCCCCCCCC(=O)OC[C@@H](O)CC(Br)P(=O)(O)O (mixture of isomers) [Compound 1, [1-Bromo-3(S)-hydroxyl-4-(palmitoyloxy)butyl]-phosphonate] | – | IC50 (human LPA2; [1]): 1420 ± 83 nM; Ki (human LPA2; [2]): 304 nM; Inhibition (%) of autotaxin (ATX) phosphodiesterase activity (recombinant ATX-HA; 10.0 μM, preliminary single-dose screen, listed as 19b): 93.7 ± 2.0%; inhibition at 10 µM (recombinant ATX-HA; 10.0 μM, preliminary single-dose screen, read-out: Inhibition (%) of autotaxin (ATX) phosphodiesterase activity): > 90%; Ki (human LPA3; [4]): 380 nM; inhibition at 30 µM (human LPA3; at 30 μM (200 nM LPA)): 71.3%; IC50 (human LPA3; read-out: LPA3 IC50): 1160 ± 259 nM; IC50 (human LPA4): 266 nM; Ki (human LPA4; antagonist mode vs 400 nM LPA): 167 nM
2 | > 30000 | 54.1 | > 30000 | > 30000 | – | – | – | – | – | – | – | CCCCCCCCCCCCCCCC(=O)OCC(O)CC(O)P(=O)([O-])O.[Na+] (mixture of isomers) [Compound 22b, reference compound] | – | –
3 | > 2160 | 74.7 | 393 ± 89 | > 1150 | weak LPA4 agonists | (71.9 ± 6.0) | (116 ± 9.5) | – | – | – | – | CCCCCCCCC=CCCCCCCCC(=O)OCC(O)CC(O)P(=O)([O-])O.[Na+] (mixture of isomers) [Compound 22a, reference compound] | (71.7 ± 2.0) | –
4 | 55.1 ± 4.3 | 38.1 ± 3.4 | 1530 ± 194 | 843 ± 130 | – | (100.3 ± 1.9) | (71.2 ± 2.9) | – | – | – | – | CCCCCCCCCCCCCCCC(=O)OCC(O)COP(=O)(O)O (stereo not drawn) [LPA (16:0), reference compound] | (102.4 ± 4.1) | –
5 | – | – | – | – | Partial Antagonist | – | – | 288 | 250 | 98.1 ± 2.3 | 35.1 | CCCCCCCCCCCCCCCC(=O)OC[C@@H](O)C[C@@H](Br)P(=O)(O)O [Compound 1a] | – | LPA2 ligand type (human LPA2): Antagonist; LPA3 ligand type (human LPA3): Antagonist; IC50 (human LPA3; [8]): 4440 nM; Ki (human LPA3; [9]): 1830 nM
6 | – | – | – | – | Partial Antagonist | – | – | 275 | 241 | 99.4 ± 2.7 | 33.1 | CCCCCCCCCCCCCCCC(=O)OC[C@@H](O)C[C@H](Br)P(=O)(O)O [Compound 1b] | – | LPA2 ligand type (human LPA2): Antagonist; IC50 (recombinant ATX-HA; 0.3 to 10 μM, FS-3 hydrolysis, read-out: ATX apparent IC50): ~300 nM; LPA3 ligand type (human LPA3): Antagonist; IC50 (human LPA3; [8]): 2090 nM; Ki (human LPA3; [9]): 623 nM

Row | Compound | EC50 (human LPA2) [nM] | Inhibition (%) of autotaxin (ATX) phosphodiesterase activity (recombinant ATX-HA; [3]) [%] | EC50 (human LPA3) [nM] | EC50 (human LPA4) [nM] | LPA4 ligand type (human LPA4) | LPA2 (Emax) (human LPA2) | LPA3 (Emax) (human LPA3) | IC50 (human LPA2; [5]) [nM] | Ki (human LPA2; [6]) [nM] | inhibition at 10 µM (recombinant ATX-HA; [7]) [%] | inhibition at 30 µM (human LPA4) [%] | LPA4 (Emax) (human LPA4) | other results
7 | CCCCCCCCCCCCCCCC(=O)OC[C@@H](O)CCP(=O)([O-])O.[Na+] [Compound 20b, reference compound] | > 30000 | 60.6 ± 4.6 | > 30000 | 5400 ± 526 | weak LPA4 agonists | – | – | – | – | – | – | (29.3 ± 1.1) | IC50 (human LPA2; [1]): 2590 ± 875 nM; Ki (human LPA2; [2]): 1300 nM; IC50 (human LPA3; antagonist mode vs 200 nM LPA, PA = partial antagonist, read-out: LPA3 IC50): 2560 ± 1160 nM; Ki (human LPA3; [4]): 961 nM
8 | CCCCCCCC/C=C\CCCCCCCC(=O)OCC(O)CCP(=O)(O)O (stereo not drawn) [Compound 20a, reference compound] | > 281 | 99.8 | > 1710 | 3900 ± 104 | weak LPA4 agonists | (94.7 ± 4.3) | (63.5 ± 4.8) | – | – | – | – | (110 ± 1.3) | –

From patent US8722649B2, “Alpha-chloro and alpha-bromo phosphonate analogs of lysophosphatidic acid and methods of making and using thereof” (University of Utah Research Foundation, priority 2007, dated 2014)
